± gives the standard deviation of the averaged measurements.

The data set concerns MCF7. Kind of data set: HRG-induced Akt activation (dPAkt = log2 pAkt/Akt HRG-stimulated minus log2 pAkt/Akt basal) (log2 ratio difference); higher = stronger HRG-induced Akt(T308) phosphorylation. Conditions: miRNA mimic concentration 10 nM; time after transfection 72 h; heregulin 10 ng/ml; stimulation time 1 h. A digest of the protocol: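 MCF7 cells ([…], 96-well plates) carrying one of 879 miRNA mimics, transfected at 10 nM final with Lipofectamine RNAiMax in two biological replicates, were stimulated after 72 h with 10 ng/ml heregulin-beta1 for 1 h or left unstimulated. Phospho-Akt(T308) and total Akt in cells fixed with 4% PFA were read by In-Cell Western on an Odyssey and corrected for column-wise fixation decay to give log2(pAkt/Akt). Heregulin-induced Akt activation is the replicate mean of stimulated minus unstimulated ratios.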

For ACCUUGCCUUGCUGCCCGGGCC, the “HRG-induced Akt activation (log2)” value stood at 1.06 ± 0.23.
With ACGCCCUUCCCCCCCUUCUUCA the figure was 1.22 ± 0.47; with ACGGAUGUUUGAGCAUGUGCUA, 2.15 ± 0.13; with ACGGGUUAGGCUCUUGGGAGCU, 1.38 ± 0.043.
For ACGGUGCUGGAUGUGGCCUUU the value was 1.92 ± 0.082.
For ACGUUGGCUCUGGUGGUG the value was 1.17 ± 0.014.
Consider ACUCAAAACCCUUCAGUGACUU, for which the “HRG-induced Akt activation (log2)” value came to 1.79 ± 0.18.
As for ACUCAAAAUGGGGGCGCUUUCC, the “HRG-induced Akt activation (log2)” value was 1.51 ± 0.055.
ACUCAAACUGUGGGGGCACU: the “HRG-induced Akt activation (log2)” value was determined as 0.915 ± 0.061.
Take ACUCCAGCCCCACAGCCUCAGC: the “HRG-induced Akt activation (log2)” value came out at 1.84 ± 0.05.
Turning to ACUCCAUUUGUUUUGAUGAUGGA, the “HRG-induced Akt activation (log2)” value is 1.19 ± 0.29.
ACUCGGCGUGGCGUCGGUCGUG: the “HRG-induced Akt activation (log2)” value was found to be 2.34 ± 0.17.
Regarding ACUCUAGCUGCCAAAGGCGCU, the “HRG-induced Akt activation (log2)” value came to 1.02 ± 0.67.
For ACUCUUUCCCUGUUGCACUAC the value was 1.677 ± 0.0095; for ACUGAUUUCUUUUGGUGUUCAG, 1.47 ± 0.082.
Turning to ACUGCAGUGAAGGCACUUGUAG, the “HRG-induced Akt activation (log2)” value was found to be 1.646 ± 0.0061.
With ACUGCAUUAUGAGCACUUAAAG the figure was 1.66 ± 0.41.
For ACUGCCCCAGGUGCUGCUGG the value was 1.25 ± 0.16; for ACUGCCCUAAGUGCUCCUUCUGG, 1.72 ± 0.1; for ACUGCUGAGCUAGCACUUCCCG, 1.04 ± 0.26.
Consider ACUGGACUUAGGGUCAGAAGGC, for which the “HRG-induced Akt activation (log2)” value worked out at 2.01 ± 0.38.
For the sequence ACUGGACUUGGAGUCAGAAGG, the “HRG-induced Akt activation (log2)” value was found to be 1.47 ± 0.21.
Turning to ACUGGCUAGGGAAAAUGAUUGGAU, the “HRG-induced Akt activation (log2)” value turned out to be 1.24 ± 0.61.
With ACUGGGGGCUUUCGGGCUCUGCGU the figure was 1.6 ± 0.11; with ACUGUAGUAUGGGCACUUCCAG, 1.46 ± 0.29.
For ACUGUUGCUAAUAUGCAACUCU the value was 0.931 ± 0.72; for ACUUAAACGUGGAUGUACUUGCU, 1.93 ± 0.26.
For ACUUACAGACAAGAGCCUUGCUC the value was 1.68 ± 0.16; for ACUUCACCUGGUCCACUAGCCGU, 1.3 ± 0.29.
On to ACUUGGGCACUGAAACAAUGUCC, for which the “HRG-induced Akt activation (log2)” value was 1.5 ± 0.025.
For the sequence ACUUGUAUGCUAGCUCAGGUAG, the “HRG-induced Akt activation (log2)” value stood at 1.13 ± 0.012.
With ACUUUAACAUGGAAGUGCUUUC the figure was 1.17 ± 0.09; with ACUUUAACAUGGAGGCACUUGC, 1.41 ± 0.029; with AGAAGGAAAUUGAAUUCAUUUA, 2.39 ± 0.29.
For AGAAUUGUGGCUGGACAUCUGU the value was 1.55 ± 0.022; for AGACCAUGGGUUCUCAUUGU, 1.18 ± 0.43.
For AGACCCUGGUCUGCACUCUAUC the value was 1.82 ± 0.41.
In the case of AGACCUGGCCCAGACCUCAGC, the “HRG-induced Akt activation (log2)” value was 1.51 ± 0.39.
Take AGACUUCCCAUUUGAAGGUGGC: the “HRG-induced Akt activation (log2)” value turned out to be 1.52 ± 0.18.
For AGAGAAGAAGAUCAGCCUGCA the value was 1.08 ± 0.5.
For AGAGCUUAGCUGAUUGGUGAAC the value was 1.58 ± 0.27; for AGAGGAUACCCUUUGUAUGUU, 1.23 ± 0.53.
For AGAGGCUGGCCGUGAUGAAUUC the value was 1.48 ± 0.024; for AGAGGUAGUAGGUUGCAUAGUU, 1.08 ± 0.21; for AGAGGUAUAGGGCAUGGGAA, 1.88 ± 0.23.
On to AGAGGUUGCCCUUGGUGAAUUC, for which the “HRG-induced Akt activation (log2)” value turned out to be 1.6 ± 0.19.
For AGAGUCUUGUGAUGUCUUGC the value was 2.38 ± 0.067; for AGAGUUGAGUCUGGACGUCCCG, 1.98 ± 0.027.
For AGAUCAGAAGGUGAUUGUGGCU the value was 1.56 ± 0.3; for AGAUCGACCGUGUUAUAUUCGC, 2.02 ± 0.14.
With AGCAGAAGCAGGGAGGUUCUCCCA the figure was 1.55 ± 0.054; with AGCAGCAUUGUACAGGGCUAUCA, 1.35 ± 0.26; with AGCAGCAUUGUACAGGGCUAUGA, 1.45 ± 0.015.
As for AGCCUGAUUAAACACAUGCUCUGA, the “HRG-induced Akt activation (log2)” value was determined as 1.23 ± 0.11.
As for AGCCUGGAAGCUGGAGCCUGCAGU, the “HRG-induced Akt activation (log2)” value came out at 1.35 ± 0.14.
For AGCUACAUCUGGCUACUGGGU the value was 1.48 ± 0.25; for AGCUACAUUGUCUGCUGGGUUUC, 1.72 ± 0.17.
For AGCUCGGUCUGAGGCCCCUCAGU the value was 0.753 ± 0.54; for AGCUGGUGUUGUGAAUCAGGCCG, 1.87 ± 0.075; for AGCUGUCUGAAAAUGUCUU, 1.08 ± 0.3.
With AGCUUCUUUACAGUGCUGCCUUG the figure was 1.68 ± 0.2; with AGGAAGCCCUGGAGGGGCUGGAG, 1.1 ± 0.6.
For AGGAAUGUUCCUUCUUUGCC, the “HRG-induced Akt activation (log2)” value was 1.91 ± 0.039.
With AGGACCUGCGGGACAAGAUUCUU the figure was 1.6 ± 0.091; with AGGAGGCAGCGCUCUCAGGAC, 1.54 ± 0.61; with AGGAUGAGCAAAGAAAGUAGAUU, 1.13 ± 0.25.
As for AGGCAAGAUGCUGGCAUAGCU, the “HRG-induced Akt activation (log2)” value worked out at 1.18 ± 0.13.
With AGGCACCAGCCAGGCAUUGCUCAGC the figure was 1.51 ± 0.2; with AGGCACGGUGUCAGCAGGC, 1.2 ± 0.26; with AGGCAGCGGGGUGUAGUGGAUA, 1.58 ± 0.27.
With AGGCAGUGUAGUUAGCUGAUUGC the figure was 2.22 ± 0.041.
For AGGCAGUGUAUUGUUAGCUGGC the value was 1.91 ± 0.036.
For AGGCAUUGACUUCUCACUAGCU, the “HRG-induced Akt activation (log2)” value stood at 1.66 ± 0.32.
With AGGCGGAGACUUGGGCAAUUG the figure was 2.43 ± 0.29.
On to AGGCGGGGCGCCGCGGGACCGC, for which the “HRG-induced Akt activation (log2)” value is 1.22 ± 0.12.
Consider AGGCUGCGGAAUUCAGGAC, for which the “HRG-induced Akt activation (log2)” value was 1.56 ± 0.23.
As to AGGGACGGGACGCGGUGCAGUG, the “HRG-induced Akt activation (log2)” value was found to be 1.15 ± 0.12.
Consider AGGGACUUUCAGGGGCAGCUGU, for which the “HRG-induced Akt activation (log2)” value turned out to be 1.48 ± 0.18.
AGGGAGGGACGGGGGCUGUGC: the “HRG-induced Akt activation (log2)” value came to 1.89 ± 0.16.
Take AGGGAUCGCGGGCGGGUGGCGGCCU: the “HRG-induced Akt activation (log2)” value worked out at 1.03 ± 0.13.
For AGGGCCCCCCCUCAAUCCUGU the value was 1.95 ± 0.39.
For AGGGCUUAGCUGCUUGUGAGCA the value was 1.75 ± 0.56; for AGGGGCUGGCUUUCCUCUGGUC, 1.57 ± 0.17; for AGGGGGAAAGUUCUAUAGUCC, 1.2 ± 0.07.
With AGGGGUGCUAUCUGUGAUUGA, the “HRG-induced Akt activation (log2)” value was determined as 1.68 ± 0.19.
Take AGGGGUGGUGUUGGGACAGCUCCGU: the “HRG-induced Akt activation (log2)” value was 2.91 ± 0.23.
With AGGGUAAGCUGAACCUCUGAU the figure was 1.51 ± 0.17.
On to AGGGUGUUUCUCUCAUCUCU, for which the “HRG-induced Akt activation (log2)” value was determined as 2.04 ± 0.21.
Turning to AGGUGGUCCGUGGCGCGUUCGC, the “HRG-induced Akt activation (log2)” value came out at 2.93 ± 0.32.

Values taken from the supplement of paper PMC4314810.
